We go through 1 molecule from patent US6107318A, “Naphthothiazolone derivatives active on the D3 dopaminergic receptor” (Zambon Group S.p.A., priority 1997, dated 2000).

One test has as its target T1, D3 (Homo sapiens, UniProt P35462).
T1 construct: expressed in transfected cells; host or cells: CHO or murine mesencephalic neuronal NM9D (sic)
Briefly: Binding to dopaminergic receptors in cell cultures, displacement of [3H]-spiperone, D3. To be noted: CHO or NM9D cell membranes; [3H]-spiperone 0.3 nM; non specific (+)-butaclamol 1 μM; Cheng and Prusoff; read-out: Receptor binding (Ki nM) D3. How it is done: (§1) Test for evaluating the bindings to dopaminergic receptors in cell cultures
(§2) Chinese hamster ovary cells (CHO) transfected with dopaminergic receptor subtypes and murine mesencephalic neuronal (NM9D) expressing the different subtypes of such receptors were used. The cell lines were grown on Petri dishes, in a mixture of DMEM and Ham's F12 medium 1:1 supplemented with 10% foetal bovine serum (FBS), penicillin, streptomycin, geneticin (500 μg/ml) and glutamin in a humidified 5% CO2 atmosphere at 37° C. When cells reached confluence they were washed with 10 ml of PBS (KCl 2.68 mM, KH2 PO4 1.4 mM, NaCl […] and Na2 HPO4 6.4 mM) then 5 ml of lysis buffer (Tris-HCl 10 mM and EDTA 5 mM) were added to each Petri. Cells were scrapped and the solution centrifuged for 20 minutes at 48,000 gravity, 4° C. The pellet was suspended in a minimal amount of lysis buffer and homogenised for 15 seconds. […] Saturation curves were analysed using Ligand® program to have Kd (dissociation constant) and Bmax (number of receptors/mg of protein) (Munson and Rodbar, 1980Anal. Biochem., 107, 220-239). […]
(§3) The compounds of the invention were tested at increasing concentrations for evaluating their binding to the various receptors, expressed as Ki (affinity constant) obtained through the Cheng and Prusoff equation

The target of another test is T2, D5 (Homo sapiens, UniProt P21918).
T2 construct: expressed in transfected cells; host or cells: CHO or murine mesencephalic neuronal NM9D (sic)
T2 sequence (P21918 whole entry): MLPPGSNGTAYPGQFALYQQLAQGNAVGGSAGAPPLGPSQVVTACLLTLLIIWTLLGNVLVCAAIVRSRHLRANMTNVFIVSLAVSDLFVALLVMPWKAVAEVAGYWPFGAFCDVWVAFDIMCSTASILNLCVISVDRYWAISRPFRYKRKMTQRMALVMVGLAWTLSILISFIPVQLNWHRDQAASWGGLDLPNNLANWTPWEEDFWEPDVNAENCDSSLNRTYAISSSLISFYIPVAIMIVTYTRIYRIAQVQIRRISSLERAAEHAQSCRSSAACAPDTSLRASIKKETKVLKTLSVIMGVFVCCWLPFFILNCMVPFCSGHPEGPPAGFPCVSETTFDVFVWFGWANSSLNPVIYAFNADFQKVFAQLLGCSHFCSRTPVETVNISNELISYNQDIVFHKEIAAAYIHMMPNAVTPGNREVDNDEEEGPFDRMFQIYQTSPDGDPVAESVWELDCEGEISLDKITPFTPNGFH
Briefly: Binding to dopaminergic receptors in cell cultures, displacement of [3H]-SCH23390, D5. To be noted: CHO or NM9D cell membranes; [3H]-SCH23390 0.2 nM; non specific (-)cis-flupenthixol 1 μM; Cheng and Prusoff; read-out: Receptor binding (Ki nM) D5. How it is done:
as §1, §2, §3

The target in a further test is T3, D2s (Homo sapiens, UniProt P14416).
T3 construct: expressed in transfected cells; host or cells: CHO or murine mesencephalic neuronal NM9D (sic)
T3 sequence (P14416 1-414 isoform P14416-2): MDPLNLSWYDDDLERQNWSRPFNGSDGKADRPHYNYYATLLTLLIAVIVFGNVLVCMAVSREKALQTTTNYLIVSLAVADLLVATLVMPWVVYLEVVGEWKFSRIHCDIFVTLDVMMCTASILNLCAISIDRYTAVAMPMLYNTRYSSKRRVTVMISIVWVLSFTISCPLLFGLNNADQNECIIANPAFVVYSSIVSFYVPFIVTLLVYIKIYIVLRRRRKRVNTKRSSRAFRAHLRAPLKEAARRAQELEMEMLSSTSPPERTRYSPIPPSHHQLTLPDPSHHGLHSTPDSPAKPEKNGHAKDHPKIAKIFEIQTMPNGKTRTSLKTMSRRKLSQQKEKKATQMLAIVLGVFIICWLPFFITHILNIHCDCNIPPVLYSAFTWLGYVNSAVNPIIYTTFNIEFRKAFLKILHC
Nature of the test: Binding to dopaminergic receptors in cell cultures, displacement of [3H]-spiperone, D2s. To be noted: CHO or NM9D cell membranes; [3H]-spiperone 0.1 nM; non specific (+)-butaclamol 1 μM; Cheng and Prusoff; read-out: Receptor binding (Ki nM) D2s. How it is done:
as §1, §2, §3
On the technique in general: Displacement assays read how much labelled ligand stays bound in the presence of the test substance.

The target of a further test is T4, D1 (Homo sapiens, UniProt P21728).
T4 construct: expressed in transfected cells; host or cells: CHO or murine mesencephalic neuronal NM9D (sic)
T4 sequence (P21728 whole entry): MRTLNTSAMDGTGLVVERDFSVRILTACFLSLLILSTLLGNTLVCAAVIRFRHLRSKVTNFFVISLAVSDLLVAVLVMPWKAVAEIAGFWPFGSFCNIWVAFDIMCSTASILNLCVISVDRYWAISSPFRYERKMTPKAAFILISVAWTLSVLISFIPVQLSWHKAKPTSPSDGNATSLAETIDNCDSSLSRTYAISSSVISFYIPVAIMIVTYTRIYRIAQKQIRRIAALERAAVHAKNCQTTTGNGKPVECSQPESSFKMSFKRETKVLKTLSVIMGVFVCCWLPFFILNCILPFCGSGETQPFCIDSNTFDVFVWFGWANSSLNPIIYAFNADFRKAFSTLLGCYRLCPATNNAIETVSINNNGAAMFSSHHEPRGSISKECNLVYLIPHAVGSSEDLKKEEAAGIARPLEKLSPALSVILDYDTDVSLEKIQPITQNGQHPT
Nature of the test: Binding to dopaminergic receptors in cell cultures, displacement of [3H]-SCH23390, D1. To be noted: CHO or NM9D cell membranes; [3H]-SCH23390 0.2 nM; non specific (-)cis-flupenthixol 1 μM; Cheng and Prusoff; read-out: Receptor binding (Ki nM) D1. How it is done:
as §1, §2, §3

The next test deals with T5, D4 (Homo sapiens, UniProt P21917).
T5 construct: expressed in transfected cells; host or cells: CHO or murine mesencephalic neuronal NM9D (sic)
T5 sequence (P21917 1-419): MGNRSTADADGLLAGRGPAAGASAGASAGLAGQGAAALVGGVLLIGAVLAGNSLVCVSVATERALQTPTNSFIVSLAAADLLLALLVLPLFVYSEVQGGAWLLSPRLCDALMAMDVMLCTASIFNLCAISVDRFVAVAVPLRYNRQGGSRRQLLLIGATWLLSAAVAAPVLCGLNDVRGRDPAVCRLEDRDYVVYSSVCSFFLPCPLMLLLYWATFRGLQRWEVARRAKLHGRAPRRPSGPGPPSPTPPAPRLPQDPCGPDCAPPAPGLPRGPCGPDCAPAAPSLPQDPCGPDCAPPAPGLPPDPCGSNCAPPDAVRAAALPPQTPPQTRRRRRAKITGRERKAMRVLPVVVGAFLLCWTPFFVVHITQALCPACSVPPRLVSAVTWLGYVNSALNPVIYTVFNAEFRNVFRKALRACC
Briefly: Binding to dopaminergic receptors in cell cultures, displacement of [3H]-spiperone, D4. To be noted: CHO or NM9D cell membranes; [3H]-spiperone 0.2 nM; non specific (+)-butaclamol 1 μM; Cheng and Prusoff; read-out: Receptor binding (Ki nM) D4. How it is done:
as §1, §2, §3

Molecules are shown by their SMILES. Structures can show the parent of a compound that is named as a salt.

T1 sequence (P35462 whole entry): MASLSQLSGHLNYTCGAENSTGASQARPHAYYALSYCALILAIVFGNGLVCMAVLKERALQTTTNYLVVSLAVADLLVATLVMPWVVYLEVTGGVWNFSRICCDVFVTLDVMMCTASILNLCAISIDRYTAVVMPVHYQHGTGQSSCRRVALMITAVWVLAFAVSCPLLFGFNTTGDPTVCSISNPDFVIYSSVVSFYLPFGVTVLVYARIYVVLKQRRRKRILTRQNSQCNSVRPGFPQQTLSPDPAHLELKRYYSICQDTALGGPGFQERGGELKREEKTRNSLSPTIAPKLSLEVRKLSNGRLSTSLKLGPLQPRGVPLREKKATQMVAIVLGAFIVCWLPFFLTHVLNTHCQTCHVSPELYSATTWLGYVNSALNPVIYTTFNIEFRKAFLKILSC

One may read the Ki as the dissociation constant of the complex between target and ligand, obtained from inhibition or displacement. As to `CCCN(CCCCCCNCCc1ccc(S(C)(=O)=O)cc1)[C@H]1CCc2c(ccc3sc(=O)[nH]c23)C1` [Compound 2, (S)-6-N-propyl-N-6-[2-(4-methylsulfonylphenyl)ethylamino]hexylamino-4,5,6,7-tetrahydronaphtho(1,2-d)thiazol-2(3H)-one dihydrochloride], the Ki on D3 was 92 nM; on D5, 9270 nM; at D2s, 9440 nM; at D1 it was more than 10000 nM; at D4 it was more than 10000 nM.
